Source: article PMC11661376, “A2B adenosine receptor-triggered intracellular calcium mobilization: Cell type-dependent involvement of Gi, Gq, Gs proteins and protein kinase C” (Research Square, 2024)

Molecular target: T1, P2Y1 receptor (P2Y1R) (Homo sapiens, UniProt P47900)
T1 construct: gene P2RY1; native receptor in T24 and HEK293 cells
Experiment: agonist-induced intracellular Ca2+ mobilization (FLIPR) in T24 cells
Format: cell-based

T1 sequence (P47900 whole entry): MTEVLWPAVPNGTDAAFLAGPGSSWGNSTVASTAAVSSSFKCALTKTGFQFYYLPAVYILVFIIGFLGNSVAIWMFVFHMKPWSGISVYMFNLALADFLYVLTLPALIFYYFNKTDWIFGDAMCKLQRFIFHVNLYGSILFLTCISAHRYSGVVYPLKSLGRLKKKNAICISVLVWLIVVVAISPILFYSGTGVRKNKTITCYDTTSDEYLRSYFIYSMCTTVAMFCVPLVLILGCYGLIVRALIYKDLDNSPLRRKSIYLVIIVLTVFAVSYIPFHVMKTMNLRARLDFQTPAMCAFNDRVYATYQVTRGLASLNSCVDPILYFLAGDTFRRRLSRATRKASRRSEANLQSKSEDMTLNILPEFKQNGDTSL

EC50: 1.38 ± 0.26 nM
Structure (SMILES): CSc1nc(N)c2ncn([C@H]3[C@H](O)[C@H](O)[C@]4(COP(=O)(O)OP(=O)(O)O)C[C@H]34)c2n1 [MRS2365]
